Source: ChEMBL document CHEMBL1201862, “PubChem BioAssay data set” (2004)
Calls of active or inactive are those of the source.

Columns and labels:
[1] = general mammalian cell viability loss – inhibitor set, cherry-pick, set 2, cytotoxicity control for miR-122 modulator project, dose response (AID 720697); type: functional, cell-based
[2] = cells; type: functional, cell-based
[3] = target: T1, Trace amine-associated receptor 1 (Homo sapiens, UniProt Q96RJ0); test: Fluorescence-based cell-based high throughput dose response assay to identify agonists of the human trace amine associated receptor 1 (TAAR1).; type: functional
T1 sequence (Q96RJ0 whole entry): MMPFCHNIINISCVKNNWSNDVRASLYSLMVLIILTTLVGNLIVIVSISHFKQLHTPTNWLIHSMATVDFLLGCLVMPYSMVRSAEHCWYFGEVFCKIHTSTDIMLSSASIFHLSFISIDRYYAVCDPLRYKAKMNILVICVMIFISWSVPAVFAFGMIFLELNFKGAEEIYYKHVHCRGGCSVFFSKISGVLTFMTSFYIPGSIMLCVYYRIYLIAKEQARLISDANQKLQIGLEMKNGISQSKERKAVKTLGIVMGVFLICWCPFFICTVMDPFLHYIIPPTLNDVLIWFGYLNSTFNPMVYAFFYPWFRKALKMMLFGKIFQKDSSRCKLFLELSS

[4] = target: T1, Trace amine-associated receptor 1; test: Counterscreen for agonists of the human trace amine associated receptor 1 (hTAAR1): Fluorescence-based cell-based high throughput dose response assay to identify hTAAR1 agonist that also desensitize TAAR1 receptor response.; type: functional
[5] = cells; type: functional, cell-based; remark: listed apart in the source
[6] = potency of ADAM10 substrate cleavage blockers – biochemical, QFRET, dose response (AID 743254);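 note: ADAM10 enzyme with the DM2 quenched FRET peptide as substrate; EDANS fluorescence gain as the protease cuts the substrate; inhibitor potency against ADAM10 proteolytic activity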
[7] = A549 cell cytotoxicity, dose response, cytotoxicity control, plate reader, cherry-pick, antagonist series (AID 743412); type: functional, cell-based
[8] = toxicity toward HepG2 liver cells – cell-based, plate reader, cherry-pick, antagonist series, cytotoxicity control, dose response (AID 743416); type: functional
[9] = blockers of bursicon-stimulated LGR2 cAMP reporter – cell-based, HEK293, CRE-luciferase reporter, cherry pick, set 2, dose response (AID 743343); type: functional;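 note: transfected cells were stimulated with diluted bursicon conditioned medium after compound addition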
[10] = blockade of melanocortin 4 receptor signaling – cell-based, plate reader, cherry pick, counter-screen for LGR2 antagonist project, dose response (AID 743444); type: functional;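 note: transfected HEK 293 cells stimulated with alpha-MSH peptide; potency of inhibitors of the alpha-MSH evoked signal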
[11] = viability loss in HEK293 cells – cell-based, plate reader, cherry-picked samples, cytotoxicity control, dose response (AID 743446); type: functional
[12] = target: SWI/SNF-related matrix-associated actin-dependent regulator of chromatin subfamily A member 2 (Homo sapiens, UniProt P51531); test: Luminescence-based cell-based high throughput dose response assay to identify activators of the function of SWI/SNF related, matrix associated, actin dependent regulator of chromatin, subfamily a, member 2 (SMARCA2, BRM).; type: functional
SWI/SNF-related matrix-associated actin-dependent regulator of chromatin subfamily A member 2, sequence (P51531 whole entry): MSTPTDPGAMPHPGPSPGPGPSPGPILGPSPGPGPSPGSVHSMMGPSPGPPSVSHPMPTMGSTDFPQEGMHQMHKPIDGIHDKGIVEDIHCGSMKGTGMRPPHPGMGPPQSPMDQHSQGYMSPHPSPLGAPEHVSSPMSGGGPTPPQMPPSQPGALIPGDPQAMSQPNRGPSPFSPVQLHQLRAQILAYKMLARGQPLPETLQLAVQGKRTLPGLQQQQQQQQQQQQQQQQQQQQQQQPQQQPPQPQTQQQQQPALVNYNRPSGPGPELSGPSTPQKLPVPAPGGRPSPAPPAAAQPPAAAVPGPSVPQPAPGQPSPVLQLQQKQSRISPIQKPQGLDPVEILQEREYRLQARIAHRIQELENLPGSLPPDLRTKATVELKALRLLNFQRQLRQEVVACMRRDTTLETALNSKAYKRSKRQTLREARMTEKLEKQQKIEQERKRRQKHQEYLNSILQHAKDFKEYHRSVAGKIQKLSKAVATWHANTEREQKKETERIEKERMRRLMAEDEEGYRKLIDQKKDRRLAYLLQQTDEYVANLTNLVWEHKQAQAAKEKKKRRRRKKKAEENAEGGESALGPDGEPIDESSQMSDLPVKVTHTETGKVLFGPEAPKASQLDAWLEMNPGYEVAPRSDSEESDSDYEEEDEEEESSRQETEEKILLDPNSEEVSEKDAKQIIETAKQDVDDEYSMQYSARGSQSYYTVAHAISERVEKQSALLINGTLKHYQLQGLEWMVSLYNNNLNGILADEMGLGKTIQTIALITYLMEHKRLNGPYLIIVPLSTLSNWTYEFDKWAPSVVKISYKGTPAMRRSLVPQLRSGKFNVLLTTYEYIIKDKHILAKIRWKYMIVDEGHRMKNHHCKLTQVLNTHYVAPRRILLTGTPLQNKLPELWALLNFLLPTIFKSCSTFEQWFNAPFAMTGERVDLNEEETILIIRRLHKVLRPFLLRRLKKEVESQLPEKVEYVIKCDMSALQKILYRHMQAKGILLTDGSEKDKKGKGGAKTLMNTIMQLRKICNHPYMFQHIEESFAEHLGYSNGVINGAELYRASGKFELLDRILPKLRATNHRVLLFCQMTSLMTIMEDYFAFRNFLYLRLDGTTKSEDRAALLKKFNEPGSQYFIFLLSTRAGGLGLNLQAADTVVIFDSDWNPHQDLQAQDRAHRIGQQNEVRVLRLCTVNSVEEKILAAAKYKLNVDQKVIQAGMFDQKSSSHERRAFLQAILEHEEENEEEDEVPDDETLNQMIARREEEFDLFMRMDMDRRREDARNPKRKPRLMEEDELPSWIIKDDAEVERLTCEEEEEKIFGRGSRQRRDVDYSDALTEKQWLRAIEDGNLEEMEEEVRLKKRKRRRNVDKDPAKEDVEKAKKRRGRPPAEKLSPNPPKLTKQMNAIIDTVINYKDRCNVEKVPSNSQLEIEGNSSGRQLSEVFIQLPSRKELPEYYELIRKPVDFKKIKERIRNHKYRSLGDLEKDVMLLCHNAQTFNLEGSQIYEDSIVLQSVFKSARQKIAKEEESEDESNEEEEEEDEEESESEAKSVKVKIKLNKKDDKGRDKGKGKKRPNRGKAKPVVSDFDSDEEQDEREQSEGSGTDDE

[13] = Counterscreen for activators of the function of SWI/SNF related, matrix associated, actin dependent regulator of chromatin, subfamily a, member 2 (SMARCA2, BRM): Luminescence-based cell-based high throughput dose response assay to identify non-selective compounds using the VP16 reporter assay.; type: functional
[14] = activation of miR-122 Renilla sensor silencing – cell-based, Huh7 psiCHECK-miR122, Renilla luciferase, cherry-picked, dose response (AID 651956); type: functional;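 note: huh7 hepatoma cells stably carrying a psiCHECK-2 miR-122 sensor plasmid; renilla luciferase signal reporting endogenous miR-122 activity after 48 h compound exposure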
[15] = general mammalian cell viability loss – activator set, cherry-pick, cytotoxicity control for miR-122 modulator project, dose response (AID 720690); type: functional, cell-based;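 note: HEK293T human cells scored for general mammalian cytotoxicity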
[16] = target: T2, DNA repair protein RAD52 homolog (Homo sapiens, UniProt P43351); type: functional, biochemical
T2 sequence (P43351 whole entry): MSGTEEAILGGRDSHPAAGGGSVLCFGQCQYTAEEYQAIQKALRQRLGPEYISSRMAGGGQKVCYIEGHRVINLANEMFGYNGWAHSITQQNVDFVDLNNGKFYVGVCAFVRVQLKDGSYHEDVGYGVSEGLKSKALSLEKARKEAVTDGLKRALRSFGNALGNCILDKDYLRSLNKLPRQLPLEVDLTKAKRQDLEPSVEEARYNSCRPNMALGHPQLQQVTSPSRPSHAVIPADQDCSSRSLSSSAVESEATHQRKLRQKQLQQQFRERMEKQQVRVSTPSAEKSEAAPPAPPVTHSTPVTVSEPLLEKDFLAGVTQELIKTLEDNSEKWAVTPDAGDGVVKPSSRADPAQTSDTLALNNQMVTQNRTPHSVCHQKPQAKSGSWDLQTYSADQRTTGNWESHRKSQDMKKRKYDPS

[17] = target: T3, DNA repair and recombination protein RAD54-like (Homo sapiens, UniProt Q92698); test: RAD54 Holliday junction migration blockers – biochemical, fluorescence, cherry-picked samples, dose series, confirmation (AID 651657); type: functional
T3 sequence (Q92698 whole entry): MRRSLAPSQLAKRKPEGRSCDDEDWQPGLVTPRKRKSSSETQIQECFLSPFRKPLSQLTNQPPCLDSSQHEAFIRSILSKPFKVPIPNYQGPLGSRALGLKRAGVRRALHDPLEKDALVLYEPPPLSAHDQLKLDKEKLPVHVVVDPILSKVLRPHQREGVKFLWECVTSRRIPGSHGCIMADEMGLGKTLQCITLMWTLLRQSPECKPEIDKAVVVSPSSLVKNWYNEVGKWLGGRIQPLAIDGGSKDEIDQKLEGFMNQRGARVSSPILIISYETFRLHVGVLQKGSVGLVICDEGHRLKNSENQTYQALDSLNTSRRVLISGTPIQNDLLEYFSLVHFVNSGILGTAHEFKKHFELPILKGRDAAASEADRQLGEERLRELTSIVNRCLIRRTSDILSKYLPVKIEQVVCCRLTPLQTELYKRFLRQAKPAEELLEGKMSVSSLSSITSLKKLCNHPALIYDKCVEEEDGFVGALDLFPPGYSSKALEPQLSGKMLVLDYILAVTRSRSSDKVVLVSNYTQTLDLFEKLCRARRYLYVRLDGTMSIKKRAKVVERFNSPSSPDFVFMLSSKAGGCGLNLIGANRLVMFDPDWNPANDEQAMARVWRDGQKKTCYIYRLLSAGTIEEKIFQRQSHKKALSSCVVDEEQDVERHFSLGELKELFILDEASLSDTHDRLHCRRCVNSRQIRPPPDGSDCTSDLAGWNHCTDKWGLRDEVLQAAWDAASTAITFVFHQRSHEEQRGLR

[18] = Luminescence Cell-Based Dose Response HTS to Identify Inhibitors of 5'UTR Stem-Loop Driven Prion Protein mRNA Translation in H4 Neuroglioblastoma Cells. [Related pubchem assays: 1827 (Project Summary), 1813 (Primary HTS)]; type: functional
[19] = target: T4, Heat shock factor protein 1 (Mus musculus, UniProt P38532); test: decrease of HSF1-responsive luciferase luminescence – cell-based, NIH3T3, dose retest, confirmation (AID 2382); type: functional;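 note: NIH3T3 fibroblasts with HSF1-driven luciferase reporter stressed by proteasome inhibitor MG132; luminescence from HSF1-driven luciferase expression after 8 hours of MG132 stress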
T4 sequence (P38532 whole entry): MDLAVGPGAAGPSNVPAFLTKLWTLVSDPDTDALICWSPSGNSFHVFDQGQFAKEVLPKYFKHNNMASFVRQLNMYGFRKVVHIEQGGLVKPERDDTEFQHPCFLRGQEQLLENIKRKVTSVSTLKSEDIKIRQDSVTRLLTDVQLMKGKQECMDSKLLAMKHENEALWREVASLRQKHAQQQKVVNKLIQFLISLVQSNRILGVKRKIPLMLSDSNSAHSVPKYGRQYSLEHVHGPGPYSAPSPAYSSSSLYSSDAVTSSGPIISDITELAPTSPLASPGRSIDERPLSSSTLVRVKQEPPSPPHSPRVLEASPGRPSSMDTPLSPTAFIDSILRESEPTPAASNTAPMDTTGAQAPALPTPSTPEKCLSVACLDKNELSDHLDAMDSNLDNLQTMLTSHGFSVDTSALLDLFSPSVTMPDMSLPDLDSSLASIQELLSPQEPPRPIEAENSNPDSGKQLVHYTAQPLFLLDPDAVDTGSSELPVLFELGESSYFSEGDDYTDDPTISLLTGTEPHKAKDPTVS

[20] = alpha-synuclein stem-loop luciferase translation blockers – H4 neuroglioma cells, luminescence, confirmation (AID 1988); type: functional, cell-based

## O=C(c1ccco1)N1CCN(C2CC(=O)N(c3ccccc3)C2=O)CC1 (configuration not stated)
[1]
  AC50: 5.02 µM (active)

## COc1ccccc1CCNCc1ccc(OC)c(OC)c1OC
[2]
  IC50: > 29.9 µM (inactive)
[3]
  EC50: 2.37 µM (active)
[4]
  IC50: 10.5 µM (inactive)
[5]
  EC50: > 29.9 µM (inactive)

## O=C(NCCc1ccccc1)C(=O)NCC1OCCN1S(=O)(=O)c1ccccc1 (configuration not stated)
[2]
  IC50: > 29.9 µM (inactive)
[3]
  EC50: 5.39 µM (active)
[4]
  IC50: 11.8 µM (inactive)
[5]
  EC50: > 29.9 µM (inactive)

## Cc1ccc(C(S)=NCS(=O)(=O)c2ccc(C)cc2)cc1
[6]
  IC50: 5.2 µM (active)

## Nc1c(C(=O)N2CCOCC2)sc2nc3c(cc12)CCCC3
[7]
  AC50: > 52 µM (inactive)
[8]
  AC50: > 52 µM (inactive)
[9]
  AC50: 2.38 µM (active)
[10]
  AC50: 3.2 µM (active)
[11]
  AC50: > 52 µM (inactive)

## Clc1ccc(-c2nc3ccc(Cl)cn3c2Cc2ccsc2)cc1
[12]
  EC50: > 91.2 µM (inactive)
[13]
  EC50: > 91.2 µM (inactive)

## CN1C(=O)c2cc(NC(=O)c3ccc(C(F)(F)F)cc3)ccc2OC[C@@H]2O[C@@H](CC(=O)NCc3ccc4c(c3)OCO4)CC[C@@H]21
[14]
  AC50: 13.8 µM (active)
[15]
  AC50: 23.8 µM (active)

## O=C(NCCc1ccccc1Cl)[C@@H]1CCCN1C(=O)[C@@H](NC(=O)N1CCOCC1)C1CCCCC1
[2]
  IC50: > 29.9 µM (inactive)
[3]
  EC50: 5.36 µM (active)
[4]
  IC50: 6.35 µM (active)
[5]
  EC50: > 29.9 µM (inactive)

## N=C(N)NCCC[C@@H]1NC(=O)c2cc([N+](=O)[O-])cc(F)c2NCCCC[C@@H](C(N)=O)NC(=O)CNC1=O
[16]
  AC50: 14.8 µM (active)

## COc1ccc(C)c2sc(N(CCN(C)C)C(=O)c3ccc4ccccc4c3)nc12
[17]
  AC50: 79.4 µM (active)
[16]
  AC50: 14.1 µM (active)

## O=C(CSc1nnc2ccccn12)Nc1ncc(Cl)cc1Cl
[12]
  EC50: > 91.2 µM (inactive)
[13]
  EC50: > 91.2 µM (inactive)

## Cc1ccc(-c2nc(-c3ccccc3)no2)c(Cl)c1
[18]
  EC50: 8.33 µM (active)
[19]
  EC50: < 0.16 µM (active)
[20]
  EC50: 9.82 µM (inconclusive)
[7]
  AC50: > 52 µM (inactive)
[8]
  AC50: > 52 µM (inactive)
[9]
  AC50: 0.842 µM (active)
[10]
  AC50: 1.26 µM (active)
[11]
  AC50: 39.7 µM (active)

## CCNC(=O)C[C@H]1CC[C@@H]2[C@@H](COc3ccc(NC(=O)c4cccc(C(F)(F)F)c4)cc3C(=O)N2C)O1
[1]
  AC50: 0.469 µM (active)
